# Experimental data taken from ChEMBL document CHEMBL1201862, “PubChem BioAssay data set” (2004).
#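 Each compound was tested at five concentrations against cells in 96-well plates for 48 hours. GI50: concentration for 50% inhibition of growth.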 Calls of active or inactive are those of the source. No stated cut-off is given here; in the data, active = GI50 up to about 1.1 µM and inactive = higher.
# Tests used:
# Assay in all cases: NCI-60 cell line screen, 48 h
# CCRF-CEM = system: CCRF-CEM
# KM12 = system: KM12
# UACC-62 = system: UACC-62
# SN12C = system: SN12C
# CAKI-1 = system: CAKI-1
# NCI-H226 = system: NCI-H226
# NCI-H23 = system: NCI-H23
# SNB-78 = system: SNB-78
# EKVX = system: EKVX
# SK-OV-3 = system: SK-OV-3
# SK-MEL-2 = system: SK-MEL-2
# K562 = system: K562
# SNB-19 = system: SNB-19
# OVCAR-5 = system: OVCAR-5
# SK-MEL-5 = system: SK-MEL-5
# HCT-15 = system: HCT-15
# MDA-MB-231 = system: MDA-MB-231
# DU-145 = system: DU-145
# Hs-578T = system: Hs-578T
Structure (SMILES),GI50 (CCRF-CEM),GI50 (KM12),GI50 (UACC-62),GI50 (SN12C),GI50 (CAKI-1),GI50 (NCI-H226),GI50 (NCI-H23),GI50 (SNB-78),GI50 (EKVX),GI50 (SK-OV-3),GI50 (SK-MEL-2),GI50 (K562),GI50 (SNB-19),GI50 (OVCAR-5),GI50 (SK-MEL-5),GI50 (HCT-15) [µM],GI50 (MDA-MB-231),GI50 (DU-145),GI50 (Hs-578T)
O=C1CNS(=O)(=O)N1,> 100 µM (inactive),> 100 µM (inactive),> 100 µM (inactive),> 100 µM (inactive),> 100 µM (inactive),14.5 µM (inactive),> 100 µM (inactive),> 100 µM (inactive),> 100 µM (inactive),> 100 µM (inactive),> 100 µM (inactive),> 100 µM (inactive),> 100 µM (inactive),,,,,,
O=C(/C=C/c1ccccc1F)c1ccc(Cl)c(Cl)c1,23.3 µM (inactive),19.9 µM (inactive),52.8 µM (inactive),35.6 µM (inactive),38.8 µM (inactive),> 100 µM (inactive),14.2 µM (inactive),> 69.3 µM (inactive),> 100 µM (inactive),> 100 µM (inactive),> 75 µM (inactive),20.5 µM (inactive),> 58.6 µM (inactive),> 87.1 µM (inactive),33.5 µM (inactive),37.1,,,
O=C1C(O)=C(CCCc2ccc(Oc3ccccc3)cc2)C(=O)c2ccccc21,18.1 µM (inactive),15.1 µM (inactive),3.94 µM (inactive),10.9 µM (inactive),21.2 µM (inactive),10.8 µM (inactive),4.58 µM (inactive),28.1 µM (inactive),11.6 µM (inactive),51.4 µM (inactive),10.2 µM (inactive),5.78 µM (inactive),7.46 µM (inactive),41.1 µM (inactive),3.38 µM (inactive),4.28,,,
CCCCCCCCCc1cc(=O)c2ccc(OCc3ccccc3)cc2o1,65.2 µM (inactive),> 100 µM (inactive),> 100 µM (inactive),> 100 µM (inactive),2.92 µM (inactive),34.7 µM (inactive),> 100 µM (inactive),> 100 µM (inactive),> 100 µM (inactive),> 100 µM (inactive),43.1 µM (inactive),> 100 µM (inactive),> 100 µM (inactive),> 100 µM (inactive),97.9 µM (inactive),> 100,,,
O=C(CC(=O)c1ccccc1)C(=O)Nc1ccc(Cl)cc1,> 100 µM (inactive),> 100 µM (inactive),> 100 µM (inactive),> 100 µM (inactive),> 100 µM (inactive),> 100 µM (inactive),> 100 µM (inactive),> 100 µM (inactive),> 100 µM (inactive),> 100 µM (inactive),> 100 µM (inactive),> 85.5 µM (inactive),> 100 µM (inactive),> 100 µM (inactive),> 100 µM (inactive),> 42.9,,,
N#CC1([N+](=O)[O-])C=C1c1ccccc1 (centres undefined),21.1 µM (inactive),> 100 µM (inactive),20.9 µM (inactive),> 100 µM (inactive),82.4 µM (inactive),95.3 µM (inactive),> 100 µM (inactive),81.5 µM (inactive),> 100 µM (inactive),> 100 µM (inactive),> 100 µM (inactive),23.2 µM (inactive),> 100 µM (inactive),> 100 µM (inactive),57.3 µM (inactive),36.7,,,
CCOC(=O)c1c2cccccc2n2c(=O)cc(C)nc12,> 100 µM (inactive),> 100 µM (inactive),71.6 µM (inactive),> 100 µM (inactive),> 100 µM (inactive),> 100 µM (inactive),> 100 µM (inactive),> 100 µM (inactive),> 100 µM (inactive),,> 100 µM (inactive),> 100 µM (inactive),> 100 µM (inactive),> 100 µM (inactive),,> 100,,,
c1ccc(C2N=NN(c3ccccc3)C2N2CCCCC2)cc1 (centres undefined),> 100 µM (inactive),> 100 µM (inactive),67 µM (inactive),> 100 µM (inactive),> 100 µM (inactive),> 100 µM (inactive),> 100 µM (inactive),75 µM (inactive),> 100 µM (inactive),38.6 µM (inactive),> 100 µM (inactive),> 100 µM (inactive),> 100 µM (inactive),> 100 µM (inactive),> 100 µM (inactive),> 100,,,
Cc1cccc(C)c1NC(=O)C(C#N)C1=C(Cl)C(=O)c2ccccc2C1=O (centres undefined),1.62 µM (inactive),16.8 µM (inactive),16.1 µM (inactive),17.4 µM (inactive),18.5 µM (inactive),12.1 µM (inactive),18.7 µM (inactive),23.4 µM (inactive),21.4 µM (inactive),20.9 µM (inactive),14.4 µM (inactive),2.77 µM (inactive),16 µM (inactive),19.3 µM (inactive),13 µM (inactive),19.1,18.6 µM (inactive),14.5 µM (inactive),12.1 µM (inactive)
COc1ccccc1NC(=O)C1=C(C)NC(C)=C(C(=O)Nc2ccccc2OC)C1/C=C/c1ccccc1,49.1 µM (inactive),> 100 µM (inactive),97.9 µM (inactive),> 100 µM (inactive),> 100 µM (inactive),> 100 µM (inactive),> 100 µM (inactive),54.8 µM (inactive),89.3 µM (inactive),> 100 µM (inactive),> 100 µM (inactive),50.2 µM (inactive),> 100 µM (inactive),> 100 µM (inactive),> 100 µM (inactive),> 100,,,
CC1CCC23COC(=O)C2C(O)CCC3C1(C)CC(O)c1ccoc1 (centres undefined),> 100 µM (inactive),> 100 µM (inactive),> 100 µM (inactive),> 100 µM (inactive),,> 100 µM (inactive),> 100 µM (inactive),> 100 µM (inactive),> 100 µM (inactive),> 100 µM (inactive),> 100 µM (inactive),> 100 µM (inactive),> 100 µM (inactive),> 100 µM (inactive),> 100 µM (inactive),> 100,,,
c1ccc2c(c1)CCc1c(-c3ccncc3)n[nH]c1-2,14.2 µM (inactive),21.8 µM (inactive),16.4 µM (inactive),43.5 µM (inactive),19.8 µM (inactive),23 µM (inactive),19.4 µM (inactive),29.6 µM (inactive),6.14 µM (inactive),33.4 µM (inactive),17.9 µM (inactive),48.2 µM (inactive),27.7 µM (inactive),32.7 µM (inactive),18 µM (inactive),32.1,,,
